Results from US20250151729A1, “METHOD FOR REDUCING OR PREVENTING EFFECT OF SALT STRESS ON PLANT” (NIPPON SODA CO., LTD, priority 2022, published 2025).

Columns and labels:
Format in all cases: in vivo
[1] = system: wheat (variety: Kitahonami); assay: Test Example 6: wheat pot test, 8 g/L sodium chloride solution poured over soil; conditions: 8 g/L NaCl
Protocol: (1) Example 6a: 8 g/L sodium chloride solution and chemical solution 6a were poured.
(2) Comparative Example 6a: 8 g/L sodium chloride solution and water were poured.
(3) Comparative Example 6b: Water was poured.
Plastic pots were filled with Kannami soil, and five seeds of wheat (variety: Kitahonami) were sowed at the center of each pot (3 cm in depth). Each test was repeated three times.
After sowing, the pots were allowed to stand in a growth chamber (20° C. dark room) for 4 days and then moved to a greenhouse.
A flowable agent containing 5% of a compound of formula (I)-1 was diluted 103 times with water to prepare chemical solution 6, and 17.3 mL of this chemical solution was poured for each pot on the 7th day after sowing (only Example 6a).
From the 10th day after sowing, 8 g/L sodium chloride solution was poured over the soil, 30 mL for each pot, once a day (only Example 6a and Comparative Example 6a).
On the 17th day after sowing, the largest root length (cm), the number of rooted individuals, the plant height (cm), and the top and root dry weights (g) were measured.

soybean (Enrei) = assay: Test Example 5: soybean pot test, 8 g/L sodium chloride solution poured over soil; conditions: 8 g/L NaCl
Protocol: (§1) (1) Example 5a: 8 g/L sodium chloride solution and chemical solution 5a were poured.
(§2) (2) Comparative Example 5a: 8 g/L sodium chloride solution and water were poured.
(§3) (3) Comparative Example 5b: Water was poured.
(§4) Plastic pots were filled with Kannami soil, and seeds of edible corn (Idaho Sweet 88) and soybean (Enrei) were sowed in their respective pots, three seeds for each pot (3 cm in depth). Each test was repeated three times. The plants were grown with subirrigation in a greenhouse.
(§5) A flowable agent containing 5% of the compound of formula (I)-1 was diluted 103 times with water to prepare chemical solution 5, and 17.3 mL of this chemical solution was poured for each pot on the 8th day after sowing (only Example 5a).
(§6) After the chemical treatment, with a pot without holes placed at the bottom, tap water was misted from above on weekends and holidays, and 50 mL of tap water was poured over the soil for each pot every weekday.
(§7) From the 11th day after sowing, 8 g/L sodium chloride solution was poured over the soil, 50 mL for each pot, every day (only Example 5a and Comparative Example 5a).
(§8) On the 19th day after sowing, the largest root length (cm), the plant height (cm), and the top and root dry weights (g) were measured.

[2] = system: edible corn (Idaho Sweet 88); assay: Test Example 5: corn pot test, 8 g/L sodium chloride solution poured over soil; conditions: 8 g/L NaCl
Protocol: as §1, §2, §3, §4, §5, §6, §7, §8

corn (P2307) = assay: Test Example 2: corn seeds on filter paper under 125 mM sodium chloride salt stress
Protocol: A flowable agent containing 10% of the compound of formula (I)-1 was diluted 106 times with water to obtain chemical solution 2a.
Eight layers of filter paper were placed at the center of a laboratory dish, and seeds (five seeds) of corn (P2307) were placed on the filter paper. Four of these were prepared.
(1) 125 mM sodium chloride and 10 mL of chemical solution 2a were poured into the laboratory dish (Example 2a).
(2) 125 mM sodium chloride and 10 ml of water were poured into the laboratory dish (Comparative Example 2a).
(3) 10 mL of water was poured into the laboratory dish (Comparative Example 2b).
Each laboratory dish was placed in a growth chamber set at 25° C. and light/dark=16/8. After 4 days, the number of roots, the root length, and the foliage length were measured for five seeds in each of (1) to (3). The recovery percentage was calculated in the same manner as in Test Example 1.

[3] = system: rice (Koshihikari: Oryza sativa); assay: Test Example 4: rice in Wagner pots under submerged conditions with sodium chloride aqueous solution
Protocol: In the middle of June, Arakidatsuchi (2 mm sieved, Akagi Engei) was placed in a Wagner pot (1/5000 a), and five grains of dried seed rice (Koshihikari: Oryza sativa) were sown at the center of the Wagner pot at a sowing depth of 3 mm to 5 mm, thus starting raising by direct seeding under submerged conditions. Individuals except for one well-grown individual from which 2 to 3 tillers appeared were cut for thinning with scissors on the 28th day after sowing. Ten pots of these were prepared.
Midseason drainage was performed on the 47th to 49th day after sowing. A flowable agent containing 10% of the compound of formula (I)-1 was diluted 103 times with water to obtain chemical solution 4. […]
The number of withered, dead stems, the number of rolled leaves, the number of crown roots, the amount of water decrease, and the length of leaf tip blight were measured on the 68th day after sowing. […]
The plant height, the number of stems, the culm length, the number of ears, the ear length, the number of whitened unhulled rice grains, the leaf color of flag leaves, and the numbers of flag leaf blights and withered, dead leaves were measured in the heading period or after. […]
The culm length, the number of ears, the ear length, the number of whitened unhulled rice grains, the leaf color of flag leaves, and the numbers of flag leaf blights and withered, dead leaves were measured on the 106th day after sowing. […]

wheat (Norin 61) [4] = assay: Test Example 1: wheat seeds on filter paper under 125 mM sodium chloride salt stress; conditions: for Foliage Length / Root Length / Root Number of roots / Foliage Recovery percentage / Root Recovery percentage: after 6 days; for Foliage Length / Root Length / Root Number of roots: average of six seeds; for Foliage Recovery percentage / Root Recovery percentage: relative to Comparative Examples 1a and 1b
Protocol: A flowable agent containing 10% of the compound of formula (I)-1 was diluted 103 times and 104 times with water to obtain chemical solution 1a and chemical solution 1b, respectively.
(§9) Eight layers of filter paper were placed at the center of a laboratory dish, and seeds (six seeds) of wheat (Norin 61) were placed on the filter paper. Four of these were prepared.
(1) 125 mM sodium chloride and 10 mL of chemical solution 1a were poured into the laboratory dish (Example 1a).
(2) 125 mM sodium chloride and 10 mL of chemical solution 1b were poured into the laboratory dish (Example 1b).
(3) 125 mM sodium chloride and 10 mL of water were poured into the laboratory dish (Comparative Example 1a).
(4) 10 mL of water was poured into the laboratory dish (Comparative Example 1b).
Each laboratory dish was placed in a growth chamber set at 25° C. and light/dark=16/8. After 6 days, the number of roots, the root length, and the foliage length were measured for six seeds in each of (1) to (4).
The recovery percentage was calculated from the following equation:
[formula] • X: Chemical treatment, sodium chloride applied • Y: No chemical treatment, sodium chloride applied • Z: No chemical treatment, no sodium chloride treatment

wheat (Norin 61) [5] = assay: Test Example 3: wheat seeds on filter paper under 125 mM sodium chloride salt stress; conditions: for Foliage Length / Root Length / Root Number of roots / Foliage Recovery percentage / Root Recovery percentage: after 4 days; for Foliage Recovery percentage / Root Recovery percentage: relative to Comparative Examples 3a and 3b
Protocol: A flowable agent containing 10% of the compound of formula (I)-1 was diluted 105 times and 107 times with water to obtain chemical solution 3a and chemical solution 3b, respectively.
as §9
(1) 125 mM sodium chloride and 10 mL of chemical solution 2a were poured into the laboratory dish (Example 3a).
(2) 125 mM sodium chloride and 10 mL of chemical solution 2b were poured into the laboratory dish (Example 3b).
(3) 125 mM sodium chloride and 10 ml of water were poured into the laboratory dish (Comparative Example 3a).
(4) 10 mL of water was poured into the laboratory dish (Comparative Example 3b).
Each laboratory dish was placed in a growth chamber set at 25° C. and light/dark=16/8. After 4 days, the number of roots, the root length, and the foliage length were measured for five seeds in each of (1) to (4). The recovery percentage was calculated in the same manner as in Test Example 1.

[6] = 5% flowable diluted 103 times, 17th day after sowing
[7] = 17.3 mL per pot of 5% flowable diluted 103 times on 7th day, measured 17th day after sowing
[8] = vs salt stress without the compound
[9] = 5% flowable diluted 103 times, 19th day after sowing
[10] = 17.3 mL per pot of 5% flowable diluted 103 times on 8th day, measured 19th day after sowing
[11] = 125 mM sodium chloride + 10 mL chemical solution 2a (10% flowable diluted 106 times), after 4 days, average of five seeds
[12] = 125 mM sodium chloride + chemical solution 2a (diluted 106 times), after 4 days, relative to Comparative Examples 2a and 2b
[13] = 125 mM sodium chloride salt stress, vs salt stress without the compound
[14] = 125 mM sodium chloride + 10 mL chemical solution 1a (10% flowable diluted 103 times)
[15] = 125 mM sodium chloride + 10 mL chemical solution 1b (10% flowable diluted 104 times)
[16] = 125 mM sodium chloride + chemical solution 1a (diluted 103 times)
[17] = 125 mM sodium chloride + chemical solution 1b (diluted 104 times)
[18] = 125 mM sodium chloride + 10 mL chemical solution 3a (10% flowable diluted 105 times; b105 prints chemical solution 2a)
[19] = 125 mM sodium chloride + 10 mL chemical solution 3b (10% flowable diluted 107 times; b106 prints chemical solution 2b)
[20] = 125 mM sodium chloride + chemical solution 3a (diluted 105 times)
[21] = 125 mM sodium chloride + chemical solution 3b (diluted 107 times)

For `Cn1nnnc1C(=NOCc1cccc(NC(=O)OC(C)(C)C)n1)c1ccccc1` [compound of formula (I)-1], the “Largest root length Wheat A: number relative to 100 of Comparative Example 6b” value [1, 6] was 100, the “Number of rooted individuals Wheat A: number relative to 100 of Comparative Example 6b” value [1, 6] was 104 and the “Plant height Wheat A: number relative to 100 of Comparative Example 6b” value [1, 6] was 98. For the same compound, the “Root dry weight Wheat A: number relative to 100 of Comparative Example 6b” value [1, 6] was 94, the “Top dry weight Wheat A: number relative to 100 of Comparative Example 6b” value [1, 6] was 96 and the “Largest root length Wheat” value [1, 7] was 18.3 cm. The “Number of rooted individuals Wheat” value [1, 7] was 8.0 Number, the “Plant height Wheat” value [1, 7] was 29.3 cm and the “Root dry weight Wheat” value [1, 7] was 0.034 g. The “Top dry weight Wheat” value [1, 7] was 0.059 g, the “Number of rooted individuals, plant height and root dry weight compared with Comparative Example 6a (in words)” value [1, 8] was “better” and the “Plant height Soybean A: number relative to 100 of Comparative Example 5b” value (soybean (Enrei); [9]) was 101. The “Root dry weight Soybean A: number relative to 100 of Comparative Example 5b” value (soybean (Enrei); [9]) was 72, the “Root length Soybean A: number relative to 100 of Comparative Example 5b” value (soybean (Enrei); [9]) was 105 and the “Top dry weight Soybean A: number relative to 100 of Comparative Example 5b” value (soybean (Enrei); [9]) was 91. The “Plant height Soybean” value (soybean (Enrei); [10]) was 48.3 cm, the “Root dry weight Soybean” value (soybean (Enrei); [10]) was 0.15 g and the “Root length Soybean” value (soybean (Enrei); [10]) was 14.3 cm. For the same compound, the “Top dry weight Soybean” value (soybean (Enrei); [10]) was 0.72 g, the “Soybean values compared with Comparative Example 5a (in words)” value (soybean (Enrei); [8]) was “better values” and the “Plant height Corn A: number relative to 100 of Comparative Example 5b” value [2, 9] was 91. The “Root dry weight Corn A: number relative to 100 of Comparative Example 5b” value [2, 9] was 90, the “Root length Corn A: number relative to 100 of Comparative Example 5b” value [2, 9] was 96 and the “Top dry weight Corn A: number relative to 100 of Comparative Example 5b” value [2, 9] was 83. For the same compound, the “Plant height Corn” value [2, 10] was 37.0 cm, the “Root dry weight Corn” value [2, 10] was 0.10 g and the “Root length Corn” value [2, 10] was 17.3 cm. For the same compound, the “Top dry weight Corn” value [2, 10] was 0.40 g, the “Corn values compared with Comparative Example 5a (in words)” value [2, 8] was “better values” and the “Foliage Length” value (corn (P2307); [11]) was 17.2 mm. The “Root Length” value (corn (P2307); [11]) was 38.6 mm, the “Root Number of roots” value (corn (P2307); [11]) was 5.2 and the “Foliage Recovery percentage” value (corn (P2307); [12]) was 28.3%. For the same compound, the “Root Recovery percentage” value (corn (P2307); [12]) was 33.8%, the “Recovery compared with Comparative Example 2a (in words)” value (corn (P2307); [13]) was “more recovery” and the “Growth and yield measurements, effect of chemical treatment (in words)” value ([3]; 2 g/L sodium chloride aqueous solution, 28 g ai per 10 a under submerged conditions) was “same effect was observed”. The “Growth and yield measurements compared with Comparative Example 4a (in words)” value ([3]; 10 g/L sodium chloride aqueous solution, chemical solution 4, 56 mL per pot, 280 g ai per 10 a, on 50th day after sowing, FIGS. 1 to 14) was “better values”, the “Foliage Length” value (wheat (Norin 61) [4]; [14]) was 68.8 mm and the “Root Length” value (wheat (Norin 61) [4]; [14]) was 49.6 mm. For the same compound, the “Root Number of roots” value (wheat (Norin 61) [4]; [14]) was 5.6, the “Foliage Length” value (wheat (Norin 61) [4]; [15]) was 64.2 mm and the “Root Length” value (wheat (Norin 61) [4]; [15]) was 50.2 mm. For the same compound, the “Root Number of roots” value (wheat (Norin 61) [4]; [15]) was 5.2, the “Foliage Recovery percentage” value (wheat (Norin 61) [4]; [16]) was 31.0% and the “Root Recovery percentage” value (wheat (Norin 61) [4]; [16]) was 8.1%. For the same compound, the “Foliage Recovery percentage” value (wheat (Norin 61) [4]; [17]) was 15.8%, the “Root Recovery percentage” value (wheat (Norin 61) [4]; [17]) was 9.1% and the “Recovery compared with Comparative Example 1a (in words)” value (wheat (Norin 61) [4]; [13]) was “more recovery”. The “Foliage Length” value (wheat (Norin 61) [5]; [18]) was 23.3 mm, the “Root Length” value (wheat (Norin 61) [5]; [18]) was 30.8 mm and the “Root Number of roots” value (wheat (Norin 61) [5]; [18]) was 4.0. For the same compound, the “Foliage Length” value (wheat (Norin 61) [5]; [19]) was 25.0 mm, the “Root Length” value (wheat (Norin 61) [5]; [19]) was 29.0 mm and the “Root Number of roots” value (wheat (Norin 61) [5]; [19]) was 4.0. For the same compound, the “Foliage Recovery percentage” value (wheat (Norin 61) [5]; [20]) was 0.0%, the “Root Recovery percentage” value (wheat (Norin 61) [5]; [20]) was 41.8% and the “Foliage Recovery percentage” value (wheat (Norin 61) [5]; [21]) was 0.0%. The “Root Recovery percentage” value (wheat (Norin 61) [5]; [21]) was 19.0% and the “Recovery in the root compared with Comparative Example 3a (in words)” value (wheat (Norin 61) [5]; [13]) was “more recovery in the root”.
